Source: patent EP4813384A1, “COMBINED PHARMACEUTICAL PREPARATION OF TAFAMIDIS OR PHARMACEUTICALLY ACCEPTABLE SALT THEREOF AND PROLINE HYDROXYLASE INHIBITOR” (Huaya Jiyuan (Shenzhen) Pharmaceutical Co., Ltd., priority 2024, dated 2025)

Key:
[1] = system: erythropoietin (EPO) gene expression; assay: Real-time reverse transcription quantitative PCR (qRT-PCR) assay of EPO gene expression; type: cell-based; conditions: HepG2 cells, 24 hours, relative to vehicle
Experimental: Experimental method: HepG2 hepatocellular carcinoma cells are seeded into a 12-well plate. After 24 hours, 10 µM roxadustat, 1 µM tafamidis, 5 µM tafamidis, 10 µM tafamidis, and 20 µM tafamidis, a combination of 10 µM roxadustat and 1 µM tafamidis, a combination of 10 µM roxadustat and 5 µM tafamidis, a combination of 10 µM roxadustat and 10 µM tafamidis, and a combination of 10 µM roxadustat and 20 µM tafamidis, are added separately, and the cells are co-incubated with the compounds for 24 hours. No treatment is applied to the vehicle group. RNA is extracted using a TRIZOL reagent. cDNA transcription is performed using an All-in-one™ First-Strand cDNA Synthesis Kit (for specific operating procedures, see the manufacturer's instructions). A SYBR reagent is used for fluorescence signal detection, and GAPDH is used as an internal control. The qRT-PCR primers are as follows: • GAPDH_fwd, […]; • GAPDH_rev, TGGTGAAGACGCCAGTGGA; • EPO_fwd, […]; • EPO_rev, […].
The test results are shown in FIG. 2: relative to the vehicle (control group), monotherapy with 10 µM roxadustat upregulates erythropoietin (EPO) gene expression by 1.5-fold, while monotherapy with 20 µM tafamidis upregulates EPO gene expression by 1-fold. […] Such activation may have potential therapeutic value for treating diseases such as ischemic diseases or anemia. Statistical analysis is performed using SPSS software. […]

rats with renal anemia = assay: Cisplatin-induced renal anemia rat model; type: in vivo, Male Sprague-Dawley (SD) rats; conditions: 5 mg/kg roxadustat
Experimental: Male Sprague-Dawley (SD) rats are allowed a one-week acclimation period, after which cisplatin (6 mg/kg) is administered through tail vein injection. A second injection is given one week later. Two weeks after the first administration, successful establishment of a renal disease model is confirmed by measuring serum creatinine and urea levels. The successfully modeled rats are randomly divided into three groups: cisplatin group (n = 6), 5 mg/kg roxadustat group (n = 6), and 5 mg/kg roxadustat + 10 mg/kg tafamidis group (n = 6), with continuous administration for 4 weeks. A solvent is administered to the normal control group (n = 7) and the cisplatin group based on the same drug administration regimen. After drug administration, blood analysis is performed once per week using a Mindray automated hematology analyzer (BC-5150). After sample collection, the rats are euthanized. Statistical significance is determined by one-way analysis of variance (ANOVA), and then a Dunnett's test is performed for comparison with the cisplatin group (*P < 0.05, **P < 0.01, ***P < 0.001).

HIF-2α = molecular target: T1, HIF-2α (Homo sapiens, UniProt Q99814); assay: Luciferase reporter gene assay (HRE-driven luciferase in stably transfected 786-O cells); type: cell-based; conditions: 786-O HRE-Luc cells, 24 hours, relative to blank control
T1 construct: 786-O is a renal carcinoma cell line that predominantly expresses HIF-2α; endogenous in cells; host or cells: 786-O cells stably transfected with HRE-driven luciferase reporter
T1 sequence (Q99814 whole entry): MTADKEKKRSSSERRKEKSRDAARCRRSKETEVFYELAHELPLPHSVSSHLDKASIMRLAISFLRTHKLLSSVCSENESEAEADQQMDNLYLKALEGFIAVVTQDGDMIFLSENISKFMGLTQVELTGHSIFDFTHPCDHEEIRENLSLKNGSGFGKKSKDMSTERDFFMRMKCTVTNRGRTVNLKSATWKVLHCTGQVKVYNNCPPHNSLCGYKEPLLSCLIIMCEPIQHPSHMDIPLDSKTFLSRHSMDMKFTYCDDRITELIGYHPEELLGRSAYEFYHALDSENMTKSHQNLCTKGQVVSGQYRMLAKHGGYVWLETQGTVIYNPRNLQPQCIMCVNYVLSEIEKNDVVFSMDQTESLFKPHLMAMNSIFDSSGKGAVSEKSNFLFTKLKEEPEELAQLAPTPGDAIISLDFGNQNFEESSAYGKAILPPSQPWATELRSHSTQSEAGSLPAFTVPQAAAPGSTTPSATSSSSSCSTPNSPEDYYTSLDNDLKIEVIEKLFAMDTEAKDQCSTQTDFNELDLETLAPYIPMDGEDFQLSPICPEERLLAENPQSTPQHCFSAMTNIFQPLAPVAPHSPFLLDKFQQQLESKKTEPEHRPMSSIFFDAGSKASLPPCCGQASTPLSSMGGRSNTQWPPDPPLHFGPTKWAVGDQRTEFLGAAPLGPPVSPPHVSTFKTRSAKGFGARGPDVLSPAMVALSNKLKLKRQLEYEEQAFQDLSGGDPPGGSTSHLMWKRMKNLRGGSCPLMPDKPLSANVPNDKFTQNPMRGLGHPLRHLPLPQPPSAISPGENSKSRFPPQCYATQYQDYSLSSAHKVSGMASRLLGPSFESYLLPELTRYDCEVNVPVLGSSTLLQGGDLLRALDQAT
T1 sequence (P27540 whole entry partner): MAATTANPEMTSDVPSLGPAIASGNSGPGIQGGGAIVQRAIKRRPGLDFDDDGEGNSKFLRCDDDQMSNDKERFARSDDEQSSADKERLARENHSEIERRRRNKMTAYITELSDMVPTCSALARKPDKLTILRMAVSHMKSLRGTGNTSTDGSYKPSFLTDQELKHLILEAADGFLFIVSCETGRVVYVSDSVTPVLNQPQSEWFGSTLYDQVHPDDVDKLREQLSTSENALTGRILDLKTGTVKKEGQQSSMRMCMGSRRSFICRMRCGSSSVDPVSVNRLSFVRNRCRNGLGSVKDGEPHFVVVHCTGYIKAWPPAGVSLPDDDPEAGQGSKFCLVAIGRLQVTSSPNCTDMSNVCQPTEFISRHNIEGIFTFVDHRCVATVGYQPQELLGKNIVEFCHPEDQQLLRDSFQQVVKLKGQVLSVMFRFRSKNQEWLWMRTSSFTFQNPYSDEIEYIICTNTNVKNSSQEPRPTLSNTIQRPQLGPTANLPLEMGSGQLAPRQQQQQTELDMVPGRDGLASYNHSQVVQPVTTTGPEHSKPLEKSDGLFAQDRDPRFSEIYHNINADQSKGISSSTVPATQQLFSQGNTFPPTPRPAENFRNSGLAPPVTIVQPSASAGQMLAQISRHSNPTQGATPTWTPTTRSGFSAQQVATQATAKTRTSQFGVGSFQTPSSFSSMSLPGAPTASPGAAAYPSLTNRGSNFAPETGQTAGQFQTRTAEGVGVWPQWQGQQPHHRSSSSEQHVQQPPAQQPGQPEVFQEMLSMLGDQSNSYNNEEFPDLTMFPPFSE
Source text: Experimental principles: 786-O is a renal carcinoma cell line that predominantly expresses HIF-2α and lacks functional HIF-1α. This characteristic makes 786-O cells an ideal model for studying HIF-2α transcriptional activity and related signaling pathways. In the luciferase reporter gene assay, a 786-O monoclonal cell line that stably expresses hypoxia response element (HRE)-driven luciferase (Luc) activity is obtained through puromycin selection. The HIF-2α agonist promotes dimerization of HIF-2α and HIF-β, and activates an HRE promoter. By measuring fluorescence intensity, luciferase activity can be determined, thereby assessing the ability of the HIF-2α agonist to promote transcription.
Experimental method: A total of 6000 stably transfected 786-O cells stably containing HRE and Luc sequences are seeded in each well of a 96-well plate, and 100 µL of RPMI-1640 culture medium containing 10% fetal bovine serum is added to each well. After 24 hours, a compound at a corresponding concentration is added to each well. A blank group is set as a control. Only a DMSO solvent is added in the well of the blank group. For initial compound screening, both tafamidis and tafamidis meglumine are tested at two concentrations: 2 µM and 20 µM. For concentration-gradient determination, each concentration is tested in triplicate. After co-incubation for 24 hours, the culture medium is discarded, and 20 µL of firefly luciferase reporter gene cell lysis buffer (RG126M, Beyotime) is added to each well. The 96-well plate is shaken on a microplate shaker for 10 minutes. After shaking, 10 µL of lysate is transferred into a white opaque plate, and then 10 µL of Steady-Lumi™ firefly luciferase assay reagent (RG058S, Beyotime) is added to each well. Finally, luminescence is measured using a microplate reader (Agilent Synergy Neo2). E20 represents the effect of the compound at a 20 µM concentration, and is calculated as: E20 = fluorescence value of the 20 µM well ÷ fluorescence value of the blank control × 100%. E2 represents the effect of the compound at a 2 µM concentration, and is calculated as: E2 = fluorescence value of the 2 µM well ÷ fluorescence value of the blank control × 100%. EC50 is the compound concentration at which the agonistic efficacy is increased by 50% relative to the blank control. […] The maximum activation percentage (Emax) of an agonist refers to a ratio, expressed as a percentage, of the fluorescence value corresponding to the maximal effect (observed maximal response) induced when the agonist concentration reaches receptor-binding saturation in a particular receptor system, to the fluorescence value of the receptor system in the absence of agonist. […]

SMILES | upregulates erythropoietin (EPO) gene expression ([1]; 10 µM roxadustat monotherapy) [fold] | Hematocrit (rats with renal anemia; Week 4, n = 6) [%] | Hemoglobin concentration (rats with renal anemia; Week 4, n = 6) [g/L] | Red blood cell count (rats with renal anemia; Week 4, n = 6) | kidneys appear red (gross observation of kidney tissues) (rats with renal anemia; group n = 6) [rats] | agonistic efficacy at a 2 µM concentration (E2) (HIF-2α) [%] | agonistic efficacy at a 20 µM concentration (E20) (HIF-2α) [%] | upregulates EPO gene expression ([1]; 20 µM tafamidis monotherapy) [fold]
Cc1nc(C(=O)NCC(=O)O)c(O)c2ccc(Oc3ccccc3)cc12 [roxadustat] | 1.5 | 52.2 ± 1.3 | 143.3 ± 4.1 | 7.03 ± 0.40 ×10^12 cells/L | 3 | – | – | –
O=C(O)c1ccc2nc(-c3cc(Cl)cc(Cl)c3)oc2c1 [tafamidis meglumine] | – | – | – | – | – | 122 | 223 | –
O=C(O)c1ccc2nc(-c3cc(Cl)cc(Cl)c3)oc2c1 [tafamidis, 2-(3,5-dichlorophenyl)-1,3-benzoxazole-6-carboxylic acid] | – | – | – | – | – | 142 | 207 | 1
